From patent US11497788B2, “Supramolecular glycosaminoglycans” (Northwestern University, priority 2015, dated 2022)

Assays:
[1] = molecular target: T1, noggin (Mus musculus, UniProt P97466); test: Noggin inhibition of BMP-2 activity in C2C12 cells; type: cell-based, murine; conditions: during osteoblast differentiation of C2C12
T1 construct: purchased PeproTech; host or cells: E. coli
T1 sequence (P97466 with tags, fused parts or gaps): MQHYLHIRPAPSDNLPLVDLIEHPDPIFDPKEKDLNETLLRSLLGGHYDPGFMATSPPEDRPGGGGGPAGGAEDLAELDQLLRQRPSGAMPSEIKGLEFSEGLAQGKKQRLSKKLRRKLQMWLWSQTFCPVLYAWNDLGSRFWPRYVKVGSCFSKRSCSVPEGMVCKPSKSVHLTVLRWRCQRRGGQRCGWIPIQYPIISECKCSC
Method: (§1) C2C12 Cell Culture: C2C12 mouse myoblasts (ATCC) were maintained in Dulbecco's Modified Eagle's Medium with high glucose and L-glutamine (DMEM, ATCC), supplemented with 100 U/mL of penicillin and 100 μg/mL streptomycin (P/S, Life Technologies) and 10% heat inactivated FBS (Life Technologies), and passaged at 80-90% confluence. Media was changed every 2 days. Passages 3 to 8 were used for experiments. Cells were grown at 37° C., 5% CO2 in a humidified atmosphere. Cells were detached following a 3 minute incubation at 37° C. with 0.05% Trypsin-EDTA (Life Technologies), then resuspended in DMEM (10% FBS). Unless stated otherwise, cells were seeded at 75,000 cells/mL (400 μL/well in a 48-well plate), and allowed to attach for a minimum of 3 hours prior to experiments.
(§2) C2C12 Osteoblast Differentiation: PA samples were thermally annealed as described for Cryo-TEM. PA solutions were spun down, pipetted for homogeneous mixing, then diluted to 1 mM with DMEM (no FBS). […] Cells were cultured for 3 days without changing the media, and osteoblast differentiation was assessed.
(§3) Alkaline Phosphatase Activity: Alkaline phosphatase (ALP) activity was measured as a marker of osteoblast differentiation (ref. 38; incorporated by reference in its entirety). […] The ALP activity was assessed by reading the OD at 630 nm with Cytation3 microplate reader (BioTek). […]

[2] = test system: EHBMP-2 (BMP-2 mutated at the N-terminal heparin-binding domain) in C2C12 cells; test: ALP activity in C2C12 cells with mutant EHBMP-2; type: cell-based, mouse; conditions: mutant BMP-2 with negligible heparin binding
Method: as §1, §2, §3

[3] = test system: rat posterolateral lumbar intertransverse spinal fusion model; test: Rat posterolateral lumbar intertransverse spinal fusion model; type: in vivo
Method: Rat Posterolateral Lumbar Intertransverse Spinal Fusion: The study was approved by and conducted in line with the Institutional Animal Care and Use Committee (IACUC) policies and procedures. […] female Sprague-Dawley rats at ages 12-16 weeks were utilized. Animals were assigned to the following treatment groups: 1) 100 ng BMP-2, n=8; 2) 100 ng BMP-2 with PA 4 nanofibers, n=12; and 3) 100 ng BMP-2 with PA 1 nanofibers, n=12. The denoted BMP-2 dose refers to total growth factor amount implanted via two absorbable collagen sponges per animal. For instance, in the 100 ng BMP-2 control group, two collagen sponges (1.75×0.5×0.5 cm) were each impregnated with 50 ng BMP-2 in 100 uL saline containing 6 mM CaCl2, then implanted adjoining the L4-L5 transverse processes on either side of the spine. For PA groups, 100 uL of PA solutions (6 mM) were used in place of saline.
PA solutions were spun down, pipetted for homogeneous mixing, then mixed with BMP-2 at 10:1 vol. ratio to yield 6 mM PA with appropriate BMP-2 concentrations.
Surgical Procedures: Rats were maintained on a heating pad under continuous anesthesia with an isoflurane inhalational anesthetic delivery system, and they were monitored by an assistant for cardiac or respiratory difficulties throughout the procedure. Utilizing a previously-described surgical technique (refs. 23, 41; incorporated by reference in their entireties), the L4 and L5 transverse processes were exposed, irrigated with sterile gentamicin/saline solution, the superficial cortical layer decorticated with a high-speed burr, then collagen sponges with appropriate treatments were implanted bilaterally in the paraspinal musculature between the transverse processes. Afterwards, the fascia and skin incisions were closed, and rats were housed in separate cages.
Manual Palpation: Fusion was assessed via manual palpation following euthanasia at 8 weeks post-surgery. Spines were scored by three blinded observers using a previously established scoring system: 0=no bridging; 1=unilateral bridging; and 2=bilateral bridging (23, 41). To assess fusion rate, spines that received an average score of 1.0 or greater were considered successfully fused.
Micro-Computed Tomography: Synchrotron micro-computed tomography (μCT) was performed on representative samples at station 2-BM of the APS (42, 43). Due to the size constraint of the μCT set-up, harvested spines were sagittally cut along the midline of the vertebrate body, using a slow-speed diamond saw (ref. 43; incorporated by reference in its entirety). Data were acquired with 27 keV photons, projections were recorded every 0.12° over 180°, and reconstruction was on a 2,048×2,048 grid with isotropic 1.45 μm voxels using TomoPy (44). […]

Substance: 3,4,6S-GlcNAc PA (VVAAEEK) [PA 1, glycosylated peptide amphiphile: Alkyne PA click-conjugated with trisulfated monosaccharide 1]
- protection of BMP-2 from noggin antagonist [1]: successfully protected
- ALP expression using EHBMP-2 [2]: minimally affected
- fusion scores, blind manual palpation ([3]; 100 ng BMP-2, 6 mM PA, 8 weeks, relative to PA 4 nanofibers or saline): highest fusion scores
- fusion rate ([3]; 100 ng BMP-2, 6 mM PA, 8 weeks, score ≥1 = fused): 100%
- new bone formation, synchrotron micro-computed tomography ([3]; 100 ng BMP-2 delivered with nanofibers): formation of new bone connecting the transverse processes
- reduction of required GF (BMP-2) for spinal fusion ([3]; 100 ng versus 10 μg BMP-2 required in the model): 100 fold
